Laboratory results taken from patent publication US7772408B1, “Substituted 5-alkoxypsoralens as inhibitors of potassium channel activity in lymphocytes and other cells” (The Regents of the University of California, priority 2002, dated 2010).
Where no end group is shown, it is not given here.

Experiments:
Nav1.2 = molecular target: T1, Nav1.2 (Mus musculus, UniProt B1AWN6); assay: Whole-cell patch-clamp, sodium channel Nav1.2 (N1E-115); format: cell-based; conditions: ratio Kd Nav1.2/Kd Kv1.3
T1 construct: endogenous in cells

LogP determined by HPLC = format: physicochemical
Kv1.3 [1] = molecular target: Kv1.3 (UniProt P16390); assay: Whole-cell patch-clamp on a cell line stably expressing Kv1.3; format: cell-based; set-up: Kd Kv1.3; other: whole-cell patch-clamp, cell line stably expressing Kv1.3; Kd Kv1.3; mean ± S.D; Kd Kv1.3 (cloned); other: whole-cell patch-clamp, three to five concentrations, n = 3; conditions: whole-cell patch-clamp, cell line stably expressing Kv1.3; mean ± S.D.
Description: (§1) Electrophysiology. All experiments were conducted in the whole-cell configuration of the patch-clamp technique with a holding potential of −80 mV on a cell line stably expressing Kv1.3. Pipette resistances averaged 2.0 MΩ, and series resistance compensation of 80% was employed when currents exceeded 2 nA. Kv1.3 currents were elicited by repeated 200 ms or 2 sec pulses from −80 mV to 40 mV, applied at intervals of 30 or 60 s.

potassium channels = conditions: background statement; read-out: Kd, block of potassium channels; cited from earlier work
Kv1.3 [2] = molecular target: Kv1.3 (UniProt P16390); assay: Whole-cell patch-clamp on a cell line stably expressing Kv1.3; format: cell-based; conditions: FIG. 1A / 1B
Description: as §1

[3] = tested on: delayed-type hypersensitivity (DTH) response; conditions: mini-pigs, cited from earlier work

T1 sequence (B1AWN6 whole entry): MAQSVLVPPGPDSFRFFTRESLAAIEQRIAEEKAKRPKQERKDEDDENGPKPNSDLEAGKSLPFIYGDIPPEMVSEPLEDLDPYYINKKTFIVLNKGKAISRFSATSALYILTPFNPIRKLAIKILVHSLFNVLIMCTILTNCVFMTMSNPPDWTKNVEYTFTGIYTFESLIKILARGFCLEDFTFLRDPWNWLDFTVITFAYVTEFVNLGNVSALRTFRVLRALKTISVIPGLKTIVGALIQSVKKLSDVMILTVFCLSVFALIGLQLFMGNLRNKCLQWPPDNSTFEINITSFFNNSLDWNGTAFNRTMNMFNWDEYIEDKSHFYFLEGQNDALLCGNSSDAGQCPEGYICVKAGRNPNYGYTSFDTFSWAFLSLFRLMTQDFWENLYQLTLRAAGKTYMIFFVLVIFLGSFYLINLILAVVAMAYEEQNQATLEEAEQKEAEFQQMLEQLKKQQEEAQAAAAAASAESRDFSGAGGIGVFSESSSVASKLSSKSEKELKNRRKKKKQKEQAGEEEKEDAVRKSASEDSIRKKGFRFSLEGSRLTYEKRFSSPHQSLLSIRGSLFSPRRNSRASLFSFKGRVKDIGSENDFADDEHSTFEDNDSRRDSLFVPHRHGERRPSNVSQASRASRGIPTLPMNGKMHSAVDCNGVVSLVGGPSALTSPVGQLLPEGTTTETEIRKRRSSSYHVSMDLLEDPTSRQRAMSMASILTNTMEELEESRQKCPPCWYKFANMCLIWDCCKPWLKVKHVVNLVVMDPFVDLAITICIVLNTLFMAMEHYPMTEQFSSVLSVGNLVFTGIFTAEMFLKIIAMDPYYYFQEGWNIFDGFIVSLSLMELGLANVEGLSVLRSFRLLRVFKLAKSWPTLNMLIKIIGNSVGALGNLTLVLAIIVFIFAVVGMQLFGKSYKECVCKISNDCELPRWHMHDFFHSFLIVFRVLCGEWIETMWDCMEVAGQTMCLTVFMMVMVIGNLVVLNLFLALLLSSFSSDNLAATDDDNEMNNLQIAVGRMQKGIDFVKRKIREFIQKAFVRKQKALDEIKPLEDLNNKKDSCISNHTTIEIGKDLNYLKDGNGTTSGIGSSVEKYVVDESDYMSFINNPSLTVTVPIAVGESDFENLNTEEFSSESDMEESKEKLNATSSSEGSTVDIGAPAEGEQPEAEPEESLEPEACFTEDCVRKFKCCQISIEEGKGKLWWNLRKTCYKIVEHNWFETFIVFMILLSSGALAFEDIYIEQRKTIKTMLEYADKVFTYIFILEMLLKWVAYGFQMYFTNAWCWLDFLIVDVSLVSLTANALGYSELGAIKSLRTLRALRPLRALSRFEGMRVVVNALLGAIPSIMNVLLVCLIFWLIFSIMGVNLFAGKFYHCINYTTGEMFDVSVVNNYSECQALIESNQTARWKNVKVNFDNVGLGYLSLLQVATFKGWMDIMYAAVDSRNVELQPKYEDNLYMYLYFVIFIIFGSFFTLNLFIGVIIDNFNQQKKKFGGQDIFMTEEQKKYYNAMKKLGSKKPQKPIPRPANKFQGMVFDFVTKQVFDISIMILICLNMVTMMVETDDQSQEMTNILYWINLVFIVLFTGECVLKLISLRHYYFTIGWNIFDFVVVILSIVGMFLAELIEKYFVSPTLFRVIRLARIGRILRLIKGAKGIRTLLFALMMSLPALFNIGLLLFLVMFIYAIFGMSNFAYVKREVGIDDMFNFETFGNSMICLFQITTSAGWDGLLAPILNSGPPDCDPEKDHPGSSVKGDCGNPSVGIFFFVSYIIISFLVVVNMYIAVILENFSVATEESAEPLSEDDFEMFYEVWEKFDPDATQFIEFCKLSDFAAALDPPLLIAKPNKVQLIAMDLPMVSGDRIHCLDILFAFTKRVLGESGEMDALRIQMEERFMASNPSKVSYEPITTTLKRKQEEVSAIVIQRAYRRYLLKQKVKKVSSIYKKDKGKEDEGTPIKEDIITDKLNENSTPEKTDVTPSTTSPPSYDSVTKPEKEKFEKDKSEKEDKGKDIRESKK

| Compound | S (selectivity over Nav1.2), S = Kd Nav1.2/Kd Kv1.3 (Nav1.2) | chromatographic logP (LogP determined by HPLC) | melting point | Kd (Kv1.3 [1]) | inhibition of Kv1.3 current (Kv1.3 [2]) | Kd (potassium channels) | suppression of primary DTH response [3] | suppression of secondary DTH response [3] |
| --- | --- | --- | --- | --- | --- | --- | --- | --- |
| O=c1ccc2c(OCc3ccccc3)c3ccoc3cc2o1 [5-BOP, 4-Benzyloxy-7H-furo[3,2-g][1]benzopyran-7-one] | 43 | 3.25 | 136 °C | 350 ± 72 nM |  |  |  |  |
| COc1c2ccoc2cc2oc(=O)ccc12 [5-MOP, 5-Methoxypsoralen] |  |  |  |  |  | 100000 nM |  |  |
| O=c1ccc2c(OCCc3ccccc3)c3ccoc3cc2o1 [J 09, 4-(2-Phenylethoxy)-7H-furo[3,2-g][1]benzopyran-7-one] | 41 | 3.55 | 154.5 °C | 169 ± 16 nM |  |  |  |  |
| CC(COc1c2ccoc2cc2oc(=O)ccc12)c1ccccc1 (stereo not drawn) [J 12, R,S-4-(2-Phenylpropoxy)-7H-furo[3,2-g][1]benzopyran-7-on] | 25 | 3.87 | 141.5 °C | 72 ± 12 nM |  |  |  |  |
| O=c1ccc2c(OCC3CCCCC3)c3ccoc3cc2o1 [J 14, 4-Cyclohexylmethoxy-7H-furo[3,2-g][1]benzopyran-7-on] | 48 | 4.41 | 153.5 °C | 138 ± 17 nM |  |  |  |  |
| O=c1ccc2c(OCCCc3ccccc3)c3ccoc3cc2o1 [J 15, 4-(3-Phenylpropoxy)-7H-furo[3,2-g][1]benzopyran-7-one] | 397 | 3.97 | 109 °C | 6.3 ± 1 nM | dose-dependent inhibition |  |  |  |
| O=c1ccc2c(OCCCCc3ccccc3)c3ccoc3cc2o1 [J 19 (Psora 4), 4-(4-Phenylbutoxy)-7H-furo[3,2-g][1]benzopyran-7-one] |  | 4.33 |  |  |  |  |  |  |
| O=c1ccc2c(OCCCCCc3ccccc3)c3ccoc3cc2o1 [J 22, 4-(5-Phenylpentoxy)-7H-furo[3,2-g][1]benzopyran-7-one] | 262 | 4.71 | 94.5 °C | 6.1 ± 0.7 nM |  |  |  |  |
| C=C1C[C@@]2(O)[C@@H]3CC[C@@]4(C)[C@@H]5C=CC(=O)OC[C@]5(C(C)OC(C)=O)[C@@H](OC(C)=O)[C@@H](OC(C)=O)[C@@H]4[C@@]3(C)[C@H](OC(C)=O)[C@H](OC(C)=O)[C@@]2(C)C2(C(=O)OC)O[C@H]12 (stereo partly drawn) [correolide] |  |  |  |  |  |  | effectively suppress | much less effective |
| MgTX: Kv1.3 blocker (TIINVKCTSPKQCLPPCKAQFGQSAGAKCMNGKCKCYPH; ends and bridges not checked; cysteine pairing not given here; UniProt P40755 1-39, looked up) |  |  |  |  |  |  | effectively suppress | much less effective |

The next lines start with results.

| S (selectivity over Nav1.2), S = Kd Nav1.2/Kd Kv1.3 (Nav1.2) | chromatographic logP (LogP determined by HPLC) | melting point | Kd (Kv1.3 [1]) | inhibition of Kv1.3 current (Kv1.3 [2]) | Compound | Kd (potassium channels) | suppression of primary DTH response [3] | suppression of secondary DTH response [3] |
| --- | --- | --- | --- | --- | --- | --- | --- | --- |
| 41 | 3.79 | 140 °C | 172 ± 37 nM |  | O=c1ccc2c(OC/C=C/c3ccccc3)c3ccoc3cc2o1 [J 16, trans-4-(3-Phenyl-2-propenyloxy)-7H-furo[3,2-g][1]benzopyran-7-on] |  |  |  |
| 38 | 4.12 | 173 °C | 68 ± 12 nM |  | O=c1ccc2c(OC(c3ccccc3)c3ccccc3)c3ccoc3cc2o1 [J 17, 4-Diphenylmethoxy-7H-furo[3,2-g][1]benzopyran-7-on] |  |  |  |
| 286 | 4.4 | 187 °C | 3.5 ± 0.5 nM |  | O=c1ccc2c(OCc3ccc(-c4ccccc4)cc3)c3ccoc3cc2o1 [J 20, 5-Biphenylmethoxypsoralen] |  |  |  |
| 8 | 5.34 | 115 °C | 144 ± 43 nM |  | O=c1ccc2c(OCCCC3CCCCC3)c3ccoc3cc2o1 [J 21, 4-(3-Cyclohexylpropoxy)-7H-furo[3,2-g][1]benzopyran-7-on] |  |  |  |
| 11 | 4.82 | 117 °C | 132 ± 33 nM |  | O=c1ccc2c(OCCC3CCCCC3)c3ccoc3cc2o1 [J 23, 4-(2-Cyclohexylethoxy)-7H-furo[3,2-g][1]benzopyran-7-on] |  |  |  |
